From patent US6727257B1, “5-(heterocyclic alkyl)-6-aryl-dihydropyrimidines” (Synaptic Pharmaceutical Corporation, priority 1994, dated 2004)
Counter-ions that a name gives are not always drawn.

melting point | Structure (SMILES)
95 to 97 °C | COC(=O)C1=C(C)N=C(C)N(CCCCCNCCCc2ccccc2)C1c1ccc(F)c(F)c1 (stereo not drawn) (as salt: HCl) [Example 61, 6-(3,4-Difluorophenyl)-1,6-dihydro-5-methoxycarbonyl-2,4-dimethyl-1-(5-(3-phenylpropylamino)pentyl)pyrimidine]
152 to 155 °C | CNC(=O)C1=C(C)N=C(C)N(CCCCCN2CCC(C(=O)OC)(c3ccccc3)CC2)C1c1ccc(F)cc1F (stereo not drawn) (as salt: HCl)
163 to 165 °C | COC(=O)C1=C(C)N=C(C)N(CCCC(O)CN2CCC(c3ccccn3)CC2)C1c1ccc(F)c(F)c1 (single isomer, unassigned; (+)) (as salt: HCl) [Example 62, (+)-6-(3,4-Difluorophenyl)-1,6-dihydro-1-(4-hydroxy-5-(4-(2-pyridyl)piperidin-1-yl)pentyl)-5-methoxycarbonyl-2,4-dimethylpyrimidine]
170 to 174 °C | COC(=O)C1=C(C)NC(=O)N(C(=O)NCCCN2CCC(c3ccccn3)CC2)C1c1ccc(F)c(F)c1 (stereo not drawn) (as salt: hydrochloride) [Example 21, 6-(3,4-Difluorophenyl)-5-methoxycarbonyl-4-methyl-2-oxo-1-{N-[4-(2-pyridyl)-piperidine-1-yl]propyl)carboxamido-1,2,3,6-tetrahydropyrimidine Dihydrochloride]
170 to 176 °C | COC(=O)C1=C(C)N=C(C)N(CCCCCN2CCC(C(=O)OC)(c3ccccc3)CC2)C1c1ccc(F)c(F)c1 (stereo not drawn) (as salt: HCl) [Example 23, 6-(3,4-Difluorophenyl)-1,6-dihydro-5-methoxycarbonyl-1-(5-(4-methoxycarbonyl-4-phenylpiperidin-1-yl)-pentyl)-2,4-dimethylpyrimidine]
53 to 57 °C | COCN1C(C)=NC(C)=C(C(=O)NCCCN2CCC(C(=O)OC)(c3ccccc3)CC2)C1c1ccc(F)c(F)c1 (stereo not drawn)
